Data reported in ChEMBL document CHEMBL6078640, “Trivalent oleanolic acid-glucose conjugates: Synthesis and efficacy against Influenza A virus” (Eur J Med Chem, 2024).
pIC50: −log10 of the molar value. Calls of active or inactive are those of the source. The rule behind the calls is not given here.

Experiments:
[1] = system: MDCK; experiment: Cytotoxicity against dog MDCK cells assessed as reduction in cell viability at 100 uM incubated for 40 hrs by celltiter-glo assay; format: toxicity, cell-based, Canis lupus familiaris
[2] = system: Influenza A virus; experiment: Antiviral activity against influenza A virus A/WSN/33 (H1N1) in MDCK cells assessed as reduction in NP expression preincubated with cells at 24 hrs followed by compound addition and measured at 0 to 2 hrs post infection by time of addition assay; format: functional, organism-based; settings: time 0-2 hrs
[3] = system: Influenza A virus; experiment: Antiviral activity against Influenza A virus A/WSN/33(H1N1) infected in female BALB/c kunming mouse assessed as improvement in body weight administered intranasally once per day for 7 days and measured daily; format: functional, organism-based; settings: dose 6.25-12.5 mg/kg/day, time 7.0 day
[4] = system: Influenza A virus; experiment: Antiviral activity against influenza A virus A/WSN/33 (H1N1) in MDCK cells assessed as reduction in M mRNA level preincubated with cells at 24 hrs followed by compound addition and measured at 0 to 10 hrs post infection by RT-qPCR analysis; format: functional, organism-based; settings: time 0-10 hrs
[5] = system: Influenza A virus; experiment: Antiviral activity against Influenza A virus A/WSN/33(H1N1) infected in female BALB/c kunming mouse assessed as reduction in immune cell infiltration at 12.5 mg/kg/day, administered intranasally once per day for 7 days starting from 24 hrs post-viral infection and measured daily; format: functional, organism-based; settings: time 7.0 day
[6] = system: Influenza A virus; experiment: Antiviral activity against influenza A virus A/WSN/33(H1N1) infected in MDCK cells assessed as inhibition of viral-induced cytopathic effect pretreated with cells followed by viral infection and measured after 40 hrs by fluorescence based microplate reader analysis; format: functional, organism-based
[7] = system: Influenza A virus; experiment: Antiviral activity against influenza A virus A/WSN/33 (H1N1) in MDCK cells assessed as reduction in NP expression preincubated with cells at 24 hrs followed by compound addition and measured at 0 to 10 hrs post infection by time of addition assay; format: functional, organism-based; settings: time 0-10 hrs
[8] = Toxicity in female BALB/c kunming mouse infected with Influenza A virus A/WSN/33(H1N1) assessed as reduction in kidney injury at 6.25 to 12.5 mg/kg/day, administered intranasally once per day for 7 days starting from 24 hrs post-viral infection by H and E staining based analysis; format: organism-based; settings: in vivo, inhaled_or_intranasal, 168 h, dose 6.25-12.5 mg/kg/day, time 7 day
[9] = system: Influenza A virus; experiment: Antiviral activity against influenza A virus A/WSN/33 (H1N1) in MDCK cells assessed as reduction in NP mRNA level preincubated with cells at 24 hrs followed by compound addition and measured at 0 to 2 hrs post infection by RT-qPCR analysis; format: functional, organism-based; settings: time 0-2 hrs
[10] = system: Influenza A virus; experiment: Antiviral activity against influenza A virus A/WSN/33 (H1N1) in MDCK cells assessed as reduction in M2 expression preincubated with cells at 24 hrs followed by compound addition and measured at 0 to 10 hrs post infection by time of addition assay; format: functional, organism-based; settings: time 0-10 hrs
[11] = system: Influenza A virus; experiment: Antiviral activity against Influenza A virus A/WSN/33(H1N1) infected in female BALB/c kunming mouse assessed as protection of mouse at 0.25 mg/kg, administered intranasally once per day for 7 days starting from 24 hrs post-viral infection and measured daily; format: functional, organism-based; settings: time 7.0 day
[12] = system: Influenza A virus; experiment: Antiviral activity against influenza A virus A/WSN/33 (H1N1) in MDCK cells assessed as reduction in NP mRNA level preincubated with cells at 24 hrs followed by compound addition and measured at 0 to 10 hrs post infection by RT-qPCR analysis; format: functional, organism-based; settings: time 0-10 hrs
[13] = Cytotoxicity against dog MDCK cells assessed as reduction in cell viability incubated for 40 hrs by celltiter-glo assay; format: toxicity, cell-based, Canis lupus familiaris
[14] = system: Influenza A virus; experiment: Antiviral activity against influenza A virus A/WSN/33 (H1N1) in MDCK cells assessed as reduction in M2 expression preincubated with cells at 24 hrs followed by compound addition and measured at 0 to 2 hrs post infection by time of addition assay; format: functional, organism-based; settings: time 0-2 hrs
[15] = system: Influenza A virus; experiment: Antiviral activity against influenza A virus A/WSN/33 (H1N1) in MDCK cells assessed as reduction in M mRNA level preincubated with cells at 24 hrs followed by compound addition and measured at 0 to 2 hrs post infection by RT-qPCR analysis; format: functional, organism-based; settings: time 0-2 hrs
[16] = Selectivity index, ratio of CC50 for dog MDCK cells to IC50 for influenza A virus A/WSN/33(H1N1) infected in MDCK cells; format: toxicity, cell-based; settings: read-out: Selectivity Index
[17] = system: Influenza A virus; experiment: Antiviral activity against Influenza A virus A/WSN/33(H1N1) infected in female BALB/c kunming mouse assessed as reduction in lung index at 12.5 mg/kg/day, administered intranasally once per day for 7 days starting from 24 hrs post-viral infection and measured daily; format: functional; settings: time 7 day
[18] = system: MDCK; experiment: Inhibition of Hemagglutinin in Influenza A virus H1N1 assessed as inhibition of virus-induced aggregation of chicken erythrocytes pretreated with virus followed by chicken RBC addition and measured after 30 mins by Hemagglutinin inhibition assay; format: cell-based; settings: dose 0-1.94 µM
[19] = system: Influenza B virus; experiment: Antiviral activity against Influenza B virus […] (B/Darwin/58/2019/Yamagata); format: functional, organism-based
[20] = system: Influenza A virus; experiment: Antiviral activity against Influenza A virus H5N1 (A/Indonesia/5/2005 (IBCDC-RG2)); format: functional, organism-based
[21] = system: Influenza A virus; experiment: Antiviral activity against Influenza A virus A/WSN/33(H1N1) infected in female BALB/c kunming mouse assessed as reduction in lung index at 6.25 mg/kg/day, administered intranasally once per day for 7 days starting from 24 hrs post-viral infection and measured daily; format: functional; settings: time 7 day
[22] = system: Influenza A virus; experiment: Antiviral activity against Influenza A virus A/WSN/33(H1N1) infected in female BALB/c kunming mouse assessed as delayed the median time of animal death at 0.125 mg/kg, administered intranasally once per day for 7 days starting from 24 hrs post-viral infection and measured daily; format: functional, organism-based; settings: time 7.0 day
[23] = system: Influenza A virus; experiment: Antiviral activity against Influenza A virus H1N1 infected in MDCK cells assessed as inhibition of viral growth at 100 uM relative to control; format: functional
[24] = system: Influenza A virus; experiment: Antiviral activity against Influenza A virus A/WSN/33(H1N1) infected in female BALB/c kunming mouse assessed as reduction in severe pneumonia at 12.5 mg/kg/day, administered intranasally once per day for 7 days starting from 24 hrs post-viral infection and measured daily; format: functional, organism-based; settings: time 7.0 day
[25] = system: Influenza A virus; experiment: Antiviral activity against Influenza A virus H1N1 infected in MDCK cells assessed as reduction in cytopathic effect at 100 uM pretreated with cells followed by viral infection and measured after 40 hrs by fluorescence based microplate reader analysis; format: functional, organism-based
[26] = Toxicity in female BALB/c kunming mouse infected with Influenza A virus A/WSN/33(H1N1) assessed as reduction in liver injury at 6.25 to 12.5 mg/kg/day, administered intranasally once per day for 7 days starting from 24 hrs post-viral infection by H and E staining based analysis; format: organism-based; settings: in vivo, inhaled_or_intranasal, 168 h, dose 6.25-12.5 mg/kg/day, time 7 day
[27] = system: Influenza A virus; experiment: Antiviral activity against Influenza A virus H1N1 (A/Guangdong maonan/6WL197/2020); format: functional, organism-based

CC1(C)CC[C@]2(C(=O)NCc3cn([C@@H]4O[C@H](CO)[C@@H](O)[C@H](O)[C@H]4O)nn3)CC[C@]3(C)C(=CC[C@@H]4[C@@]5(C)CC[C@H](OC(=O)NCc6cn(Cc7cc(Cn8cc(CNC(=O)O[C@H]9CC[C@]%10(C)[C@H]%11CC=C%12[C@@H]%13CC(C)(C)CC[C@]%13(C(=O)NCc%13cn([C@@H]%14O[C@H](CO)[C@@H](O)[C@H](O)[C@H]%14O)nn%13)CC[C@@]%12(C)[C@]%11(C)CC[C@H]%10C9(C)C)nn8)cc(Cn8cc(CNC(=O)O[C@H]9CC[C@]%10(C)[C@H]%11CC=C%12[C@@H]%13CC(C)(C)CC[C@]%13(C(=O)NCc%13cn([C@@H]%14O[C@H](CO)[C@@H](O)[C@H](O)[C@H]%14O)nn%13)CC[C@@]%12(C)[C@]%11(C)CC[C@H]%10C9(C)C)nn8)c7)nn6)C(C)(C)[C@@H]5CC[C@]43C)[C@@H]2C1
Activity [1]: Non-toxic | Activity [2]: Active; Compound Exerts Antiviral Effect At Early Stage Of Infection | Activity [3]: Dose-dependent-effect | Activity [4]: Active; Compound Exerts Antiviral Effect At Early Stage Of Infection | Activity [5]: Active | pIC50 [6]: 6.33 | Activity [7]: Active; Compound Exerts Antiviral Effect At Early Stage Of Infection | Activity [8]: Non-toxic | Activity [9]: Active; Compound Exerts Antiviral Effect At Early Stage Of Infection | Activity [10]: Active; Compound Exerts Antiviral Effect At Early Stage Of Infection | Activity [11]: Active; Protection In 2 Out Of 4 Mouse Was Observed | Activity [12]: Active; Compound Exerts Antiviral Effect At Early Stage Of Infection | CC50 at 40 h [13]: > 100 µM | Activity [14]: Active; Compound Exerts Antiviral Effect At Early Stage Of Infection | Activity [15]: Active; Compound Exerts Antiviral Effect At Early Stage Of Infection | selectivity ratio [16]: > 213 | Activity_index [17]: 1.4 | inhibition [18]: Dose-dependent-effect | pIC50 [19]: 5.62 | Activity [20]: inactive | Activity_index [21]: 1.7 | Activity [22]: Active | inhibition at 100 µM [23]: > 75% | Activity [24]: Active | Activity [25]: Active | Activity [26]: Non-toxic | pIC50 [27]: 5.28
